Measured values reported in patent US8846750B2, “Pharmaceutical and food compositions for preventing or treating diabetes or obesity” (Korea Ocean Research and Development Institute, priority 2010, dated 2014).
Where “and” joins values, the source holds several entries; their conditions need not be identical. Equal values may be shown once.

Legend:
[1] = system: other protein tyrosine phosphatases (PTPN5, PTPN6, PTPN7, PTPN13); test: Selectivity for protein tyrosine phosphatases: other phosphatases of the panel; type: biochemical; conditions: for selectivity among protein tyrosine phosphatases: PTP-1b, PTPN2, PTPN5, PTPN6, PTPN7 and PTPN13; for inhibitory activity against other protein tyrosine phosphatases: 0, 50, 100 or 200 nM tested
Description: In order to examine the selectivity of sodium lobarate for protein tyrosine phosphatases, the inhibitory activities of sodium lobarate against PTP-1b, PTPN2, PTPN5, PTPN6, PTPN7 and PTPN13 were examined by spectroscopically measuring the activities of the enzymes.
(§1) Specifically, to 0.5 mg/Ml of PTP-1b, PTPN2, PTPN5, PTPN6, PTPN7 or PTPN13 (Bioneer, Korea) in protein tyrosine phosphatase buffer (20 mM Tris-Hcl, pH 8.0, 0.75 mM NaCl, 0.5 mM EDTA, 5 mM β-mercaptoethanol, 50% glycerol), 0, 50, 100 or 200 nM sodium lobarate and the substrate [pTyr1146] insulin receptor (1142-1153, Sigma, USA) were added. Then, each of the mixtures was allowed to react at room temperature for 10-30 minutes, and then malachite green-molybdate dye solution (Sigma, USA) was added thereto and reacted at room temperature for 10 minutes. After completion of the reaction with the substrate, the absorbance at 620 nm was measured.
In order to examine the selectivity of Lobarin for protein tyrosine phosphatases, the inhibitory activities of Lobarin against PTP-1b, PTPN2, PTPN5, PTPN6, PTPN7 and PTPN13 were examined by spectroscopically measuring the activities of the enzymes.
as §1, with “Lobarin” for “sodium lobarate”
as §1, with “In order to examine the selectivity of Lobarstin for protein tyrosine phosphatases, the inhibitory activities of Lobarstin against PTP-1b, PTPN2, PTPN5, PTPN6, PTPN7 and PTPN13 were examined by spectroscopically measuring the activities of the enzymes. Specifically,” for “Specifically,”, “Lobarstin” for “sodium lobarate”

[2] = target: T1, PTP-1b (protein tyrosine phosphatase-1b) (Homo sapiens, UniProt P18031); test: PTP-1b inhibitory activity, malachite green assay with [pTyr1146] insulin receptor substrate; type: biochemical; conditions: PTP-1b (Bioneer), absorbance at 620 nm; read-out: IC50 against PTP-1b
T1 construct: purchased Bioneer, Korea
T1 sequence (P18031 1-435): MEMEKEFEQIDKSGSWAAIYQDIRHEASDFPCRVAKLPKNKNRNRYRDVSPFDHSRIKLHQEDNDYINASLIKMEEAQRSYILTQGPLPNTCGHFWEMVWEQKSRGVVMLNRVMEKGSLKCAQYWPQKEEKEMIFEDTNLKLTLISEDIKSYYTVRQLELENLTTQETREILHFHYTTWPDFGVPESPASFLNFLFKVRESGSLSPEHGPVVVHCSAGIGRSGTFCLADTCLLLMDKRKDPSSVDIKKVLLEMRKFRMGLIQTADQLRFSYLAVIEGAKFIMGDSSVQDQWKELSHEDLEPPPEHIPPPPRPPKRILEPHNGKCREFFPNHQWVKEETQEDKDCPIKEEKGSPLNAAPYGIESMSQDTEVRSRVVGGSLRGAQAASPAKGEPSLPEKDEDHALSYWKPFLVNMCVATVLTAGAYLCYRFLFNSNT
Description: In order to analyze the PTP-1b (protein tyrosine phosphatase-1b) inhibitory activity of sodium lobarate, the activity of the enzyme was spectroscopically measured.
(§2) Specifically, to 0.5 mg/Ml of PTP-1b (Bioneer, Korea) in PTP-1b buffer (20 mM Tris-HCl, pH 8.0, 0.75 mM NaCl, 0.5 mM EDTA, 5 mM β-mercaptoethanol, 50% glycerol), 0, 1, 3, 10, 30, 100, 300, 1,000 and 3,000 nM of sodium lobarate and the substrate [pTyr1146] insulin receptor (1142-1153, Sigma, USA) were added. Each mixture was allowed to react at room temperature for 10-30 minutes, and malachite green-molybdate dye solution was added thereto and reacted at room temperature for 10 minutes. After completion between PTP-1b, sodium lobarate and the substrate, the absorbance at 620 nm was measured.
The activity of the enzyme was spectroscopically measured to analyze the protein PTP-1b inhibitory activity of Lobarin.
as §2, with “Tris-HCL,” for “Tris-HCl,”, “1000 or 3000” for “1,000 and 3,000”, “Lobarin” for “of sodium lobarate”, “of the mixtures” for “mixture”, “Lobarin” for “sodium lobarate”
The activity of the enzyme was spectroscopically measured to analyze the protein PTP-1b inhibitory activity of Lobarstin. Specifically, to 0.5 mg/Ml of PTP-1b (Bioneer, Korea) in PTP-1b buffer (20 mM Tris-HCL, pH 8.0, 0.75 mM NaCl, 0.5 mM EDTA, 5 mM β-mercaptoethanol, 50% glycerol), 0, 1, 3, 10, 30, 100, 300, 1000 or 3000 nM Lobarstin and the substrate [pTyr1146] insulin receptor (1142-1153, Sigma, USA) were added. […] After completion between PTP-1b, Lobarstin and the substrate, the absorbance at 620 nm was measured.

Compound | selectivity among protein tyrosine phosphatases [1] | IC50 [2] | inhibitory activity against other protein tyrosine phosphatases [1]
CCCCCc1c2c(cc(O)c1C(=O)[O-])OC(=O)c1c(cc(OC)cc1C(=O)CCCC)O2.[Na+] [sodium lobarate] | acts selectively only on PTP-1b | 350 nM | –
CCC/C=C1/OC(=O)c2c(Oc3c(O)cc(O)c(C(=O)O)c3CCCCC)cc(OC)cc21 [Lobarstin] | acts selectively only on PTP-1b | 155 nM | no inhibitory activity
CCCCCc1c(Oc2cc(OC)cc3c2C(=O)OC3(O)CCCC)c(O)cc(O)c1C(=O)O (centres unmarked) [Lobarin] | acts selectively only on PTP-1b | 149 nM and 155 nM | no inhibitory activity
